Measured values as given in ChEMBL document CHEMBL1154911, “Structure and biosynthesis of amphidinol 17, a hemolytic compound from Amphidinium carterae” (J Nat Prod, 2010).
Calls of active or inactive are those of the source. The calls are words filed in the database; no cut-off is given here.

Tests used:
Kluyveromyces marxianus = experiment: Antifungal activity against Candida kefyr ATCC 2512 by disk diffusion method; assay type: functional, organism-based
[1] = Toxicity in human RBC assessed as hemolytic activity after 24 hrs by microtiter plate assay; assay type: cell-based, Erythrocyte; settings: human red blood cells (RBC)
Aspergillus niger = experiment: Antifungal activity against Aspergillus niger ATCC 16404 by disk diffusion method; assay type: functional, organism-based

SMILES: C=CCC/C=C/C=C/C=C/CC/C=C/[C@@H](O)[C@H](O)C1O[C@@H]([C@H](O)[C@H](O)C(=C)CC[C@@H](O)C2C[C@@H](O)[C@@H](O)[C@H]([C@@H](O)[C@H](O)/C=C(\C)CC[C@H](O)C[C@H](O)[C@H](O)[C@@H](C)C[C@H](O)C(O)C(C)CCC(O)CCCC(O)CCCCCOS(=O)(=O)O)O2)C[C@@H](O)[C@H]1O (stereo partly drawn) [AMPHIDINOL 17]
- Activity (Kluyveromyces marxianus): inactive
- EC50 at 24 h [1]: 4.9 µM
- Activity (Aspergillus niger): inactive
